Experimental findings from ChEMBL document CHEMBL4627327, “Antibacterial activity of singly and doubly modified salinomycin derivatives” (Bioorg Med Chem Lett, 2020) are described below.

In data set [1] the test system is Pseudomonas aeruginosa. In words: Antibacterial activity against Pseudomonas aeruginosa ATCC 15442 assessed as bacterial growth inhibition measured after 18 hrs by CLSI protocol based two-fold serial microdilution method. The class given is functional, organism-based. (In general: Dilution methods test growth across graded concentrations, often in twofold steps.)

Data set [2] deals with Pseudomonas aeruginosa. Put plainly: Antibacterial activity against Pseudomonas aeruginosa ATCC 27853 assessed as bacterial growth inhibition measured after 18 hrs by CLSI protocol based two-fold serial microdilution method. The class given is functional, organism-based.
Data set [3] deals with Escherichia coli. In words: Antibacterial activity against Escherichia coli NCTC 8196 assessed as bacterial growth inhibition measured after 18 hrs by CLSI protocol based two-fold serial microdilution method. The class given is functional, organism-based.
Data set [4] relates to Escherichia coli. In words: Antibacterial activity against Escherichia coli ATCC 25922 assessed as bacterial growth inhibition measured after 18 hrs by CLSI protocol based two-fold serial microdilution method. The class given is functional, organism-based.
The subject of data set [5] is Staphylococcus epidermidis. In words: Antibacterial activity against methicillin-resistant Staphylococcus epidermidis isolate 574 assessed as bacterial growth inhibition measured after 18 hrs by CLSI protocol based two-fold serial microdilution method. The class given is functional. The note with it: isolate 574, 18 h.
The test system of data set [6] is Staphylococcus epidermidis. In words: Antibacterial activity against methicillin-resistant Staphylococcus epidermidis isolate 602 assessed as bacterial growth inhibition measured after 18 hrs by CLSI protocol based two-fold serial microdilution method. The class given is functional. The note with it: isolate 602, 18 h.
The subject of data set [7] is Staphylococcus epidermidis. In words: Antibacterial activity against methicillin-resistant Staphylococcus epidermidis isolate 603 assessed as bacterial growth inhibition measured after 18 hrs by CLSI protocol based two-fold serial microdilution method. In kind it is functional. The note with it: isolate 603, 18 h.
For data set [8], the system named is Staphylococcus epidermidis. In words: Antibacterial activity against methicillin-resistant Staphylococcus epidermidis isolate 609 assessed as bacterial growth inhibition measured after 18 hrs by CLSI protocol based two-fold serial microdilution method. In kind it is functional. The note with it: isolate 609, 18 h.
The subject of data set [9] is Staphylococcus epidermidis. Put plainly: Antibacterial activity against methicillin-resistant Staphylococcus epidermidis isolate 610 assessed as bacterial growth inhibition measured after 18 hrs by CLSI protocol based two-fold serial microdilution method. In kind it is functional. The note with it: isolate 610, 18 h.
In data set [10] the test system is Staphylococcus epidermidis. In words: Antibacterial activity against methicillin-resistant Staphylococcus epidermidis isolate 654 assessed as bacterial growth inhibition measured after 18 hrs by CLSI protocol based two-fold serial microdilution method. The note with it: isolate 654, 18 h. The class given is functional.
The subject of data set [11] is Staphylococcus epidermidis. In words: Antibacterial activity against methicillin-resistant Staphylococcus epidermidis isolate 660 assessed as bacterial growth inhibition measured after 18 hrs by CLSI protocol based two-fold serial microdilution method. In kind it is functional. The note with it: isolate 660, 18 h.
Data set [12] relates to Staphylococcus aureus. In words: Antibacterial activity against methicillin-resistant Staphylococcus aureus isolate 583 assessed as bacterial growth inhibition measured after 18 hrs by CLSI protocol based two-fold serial microdilution method. The note with it: isolate 583, 18 h. The class given is functional.
In data set [13] the test system is Staphylococcus aureus. Put plainly: Antibacterial activity against methicillin-resistant Staphylococcus aureus isolate 584 assessed as bacterial growth inhibition measured after 18 hrs by CLSI protocol based two-fold serial microdilution method. The class given is functional. The note with it: isolate 584, 18 h.
In data set [14] the test system is Staphylococcus aureus. In words: Antibacterial activity against methicillin-resistant Staphylococcus aureus isolate 612 assessed as bacterial growth inhibition measured after 18 hrs by CLSI protocol based two-fold serial microdilution method. The note with it: isolate 612, 18 h. The class given is functional.
For data set [15], the system named is Staphylococcus aureus. Put plainly: Antibacterial activity against methicillin-resistant Staphylococcus aureus isolate 620 assessed as bacterial growth inhibition measured after 18 hrs by CLSI protocol based two-fold serial microdilution method. The class given is functional. The note with it: isolate 620, 18 h.
Data set [16] relates to Staphylococcus aureus. In words: Antibacterial activity against methicillin-resistant Staphylococcus aureus isolate 621 assessed as bacterial growth inhibition measured after 18 hrs by CLSI protocol based two-fold serial microdilution method. The note with it: isolate 621, 18 h. In kind it is functional.
Data set [17] has as its system Staphylococcus aureus. Put plainly: Antibacterial activity against methicillin-resistant Staphylococcus aureus isolate 750 assessed as bacterial growth inhibition measured after 18 hrs by CLSI protocol based two-fold serial microdilution method. In kind it is functional. The note with it: isolate 750, 18 h.
The subject of data set [18] is Staphylococcus aureus. In words: Antibacterial activity against methicillin-resistant Staphylococcus aureus isolate 770 assessed as bacterial growth inhibition measured after 18 hrs by CLSI protocol based two-fold serial microdilution method. The class given is functional. The note with it: isolate 770, 18 h.
Data set [19] deals with Staphylococcus epidermidis. In words: Inhibition of biofilm formation in Staphylococcus epidermidis ATCC 35984 at 1 to 8 ug/ml measured after 24 hrs by crystal violet staining based assay. The class given is functional, organism-based.
Data set [20] relates to Staphylococcus epidermidis. Put plainly: Inhibition of biofilm formation in Staphylococcus epidermidis ATCC 12228 at 1 to 8 ug/ml measured after 24 hrs by crystal violet staining based assay. The class given is functional, organism-based.
A short description of data set [21]: Genotoxicity in rec negative Bacillus subtilis M45 assessed as diameter of inhibition zone at 256 ug measured after 24 hrs by rec-assay. In kind it is toxicity. The note with it: in vivo.
Data set [22] in a line: Genotoxicity in rec-positive Bacillus subtilis H17 assessed as diameter of inhibition zone at 256 ug measured after 24 hrs by rec-assay. The class given is toxicity. The note with it: in vivo.

In brackets after ≈: the same amount, converted by molar mass. Activity calls are given as the source filed them. The calls are words filed in the database; no cut-off is given here.

A word on the MIC: it is the lowest concentration found to suppress growth. Turning to `CC[C@@H](C(=O)[C@@H](C)[C@@H](O)[C@H](C)[C@@H]1O[C@@H]([C@@H](CC)C(=O)O)CC[C@@H]1C)[C@H]1O[C@]2(C=CC(=O)[C@]3(CC[C@@](C)([C@H]4CC[C@](O)(CC)[C@H](C)O4)O3)O2)[C@H](C)C[C@@H]1C`, the outcome in data set [1], in data set [2], in data set [3] and in data set [4] was inactive. The MIC in data set [5] turned out to be 1.34 µM (≈ 1 µg/mL); in data set [6] it was 2.67 µM (≈ 2 µg/mL); in [7] it was 2.67 µM (≈ 2 µg/mL); in data set [8], 2.67 µM (≈ 2 µg/mL); in [9] it was 2.67 µM (≈ 2 µg/mL); in [10], 5.34 µM (≈ 4 µg/mL). In addition, the MIC in data set [11] amounted to 5.34 µM (≈ 4 µg/mL); in data set [12], 2.67 µM (≈ 2 µg/mL); in data set [13], 2.67 µM (≈ 2 µg/mL); in data set [14], 2.67 µM (≈ 2 µg/mL); in data set [15] it was 2.67 µM (≈ 2 µg/mL); in data set [16] it was 2.67 µM (≈ 2 µg/mL). Further, the MIC in data set [17] and in data set [18] was 2.67 µM (≈ 2 µg/mL) throughout. For the same molecule, the inhibition entry in data set [19] and in [20] was “Active” in each case. For the same molecule, the “diameter of the inhibition zone (DIZ)” value is recorded as 34 mm in [21] and 32 mm in [22].

Consider `C#CCNC(=O)[C@H](CC)[C@H]1CC[C@H](C)[C@H]([C@@H](C)[C@H](O)[C@H](C)C(=O)[C@H](CC)[C@H]2O[C@]3(C=CC(=O)[C@]4(CC[C@@](C)([C@H]5CC[C@](O)(CC)[C@H](C)O5)O4)O3)[C@H](C)C[C@@H]2C)O1`, for which the result in data set [1], in [2], in data set [3] and in data set [4] was inactive.

For `O=C(O)c1cn(C2CC2)c2cc(N3CCNCC3)c(F)cc2c1=O`, the inhibition result in data set [19] and in data set [20] was “Active” in each case.

As to `CC[C@@H](C(=O)[C@@H](C)[C@@H](O)[C@H](C)[C@@H]1O[C@@H]([C@@H](CC)C(=O)NCC(F)(F)F)CC[C@@H]1C)[C@H]1O[C@]2(C=C[C@@H](O)[C@]3(CC[C@@](C)([C@H]4CC[C@](O)(CC)[C@H](C)O4)O3)O2)[C@H](C)C[C@@H]1C`, the outcome in [1], in data set [2], in data set [3] and in data set [4] was inactive.

Regarding `CC[C@@H](C(=O)[C@@H](C)[C@@H](O)[C@H](C)[C@@H]1O[C@@H]([C@@H](CC)C(=O)NCCc2ccc(F)cc2)CC[C@@H]1C)[C@H]1O[C@]2(C=CC(=O)[C@]3(CC[C@@](C)([C@H]4CC[C@](O)(CC)[C@H](C)O4)O3)O2)[C@H](C)C[C@@H]1C`, the result in data set [1], in [2], in data set [3] and in data set [4] was inactive.

`C#CCOC(=O)[C@H](CC)[C@H]1CC[C@H](C)[C@H]([C@@H](C)[C@H](O)[C@H](C)C(=O)[C@H](CC)[C@H]2O[C@]3(C=CC(=O)[C@]4(CC[C@@](C)([C@H]5CC[C@](O)(CC)[C@H](C)O5)O4)O3)[C@H](C)C[C@@H]2C)O1`: the outcome in data set [1], in [2], in data set [3] and in data set [4] was inactive.

Turning to `C#CCNC(=O)[C@H](CC)[C@H]1CC[C@H](C)[C@H]([C@@H](C)[C@H](O)[C@H](C)C(=O)[C@H](CC)[C@H]2O[C@]3(C=C[C@@H](O)[C@]4(CC[C@@](C)([C@H]5CC[C@](O)(CC)[C@H](C)O5)O4)O3)[C@H](C)C[C@@H]2C)O1`, the outcome in [1], in [2], in data set [3] and in [4] was inactive.

Take `CC[C@@H](C(=O)[C@@H](C)[C@@H](O)[C@H](C)[C@@H]1O[C@@H]([C@@H](CC)C(=O)OCC(F)(F)F)CC[C@@H]1C)[C@H]1O[C@]2(C=CC(=O)[C@]3(CC[C@@](C)([C@H]4CC[C@](O)(CC)[C@H](C)O4)O3)O2)[C@H](C)C[C@@H]1C`: the outcome in data set [1], in [2], in data set [3] and in data set [4] was inactive.

With `CC[C@@H](C(=O)[C@@H](C)[C@@H](O)[C@H](C)[C@@H]1O[C@@H]([C@@H](CC)C(=O)OCC(F)(F)F)CC[C@@H]1C)[C@H]1O[C@]2(C=C[C@@H](O)[C@]3(CC[C@@](C)([C@H]4CC[C@](O)(CC)[C@H](C)O4)O3)O2)[C@H](C)C[C@@H]1C`, the result in data set [1], in [2], in data set [3] and in [4] was inactive.

As to `CC[C@@H](C(=O)[C@@H](C)[C@@H](O)[C@H](C)[C@@H]1O[C@@H]([C@@H](CC)C(=O)O)CC[C@@H]1C)[C@H]1O[C@]2(C=C[C@@H](O)[C@]3(CC[C@@](C)([C@H]4CC[C@](O)(CC)[C@H](C)O4)O3)O2)[C@H](C)C[C@@H]1C` [SALINOMYCIN], the result in data set [1], in [2], in data set [3] and in [4] was inactive. Also, the MIC was 1.33 µM (≈ 0.999 µg/mL) in data set [5]; 1.33 µM (≈ 0.999 µg/mL) in data set [6]; 2.66 µM (≈ 2 µg/mL) in [7]; 1.33 µM (≈ 0.999 µg/mL) in data set [8]; 1.33 µM (≈ 0.999 µg/mL) in data set [9]; 5.33 µM (≈ 4 µg/mL) in [10]. The MIC is 5.33 µM (≈ 4 µg/mL) in data set [11]; 2.66 µM (≈ 2 µg/mL) in [12]; 2.66 µM (≈ 2 µg/mL) in data set [13]; 1.33 µM (≈ 0.999 µg/mL) in data set [14]; 1.33 µM (≈ 0.999 µg/mL) in data set [15]; 2.66 µM (≈ 2 µg/mL) in data set [16]. Moreover, the results for the MIC in [17] and in data set [18] were 1.33 µM (≈ 0.999 µg/mL) and 2.66 µM (≈ 2 µg/mL), respectively. The “diameter of the inhibition zone (DIZ)” value is 34 mm in data set [21] and 32 mm in data set [22].

As to `O=[N+]([O-])c1cc[n+]([O-])c2ccccc12` [4-NITROQUINOLINE-1-OXIDE], the “diameter of the inhibition zone (DIZ)” value is reported as 34 mm in data set [21] and 22 mm in data set [22].

With `C#CCOC(=O)[C@H](CC)[C@H]1CC[C@H](C)[C@H]([C@@H](C)[C@H](O)[C@H](C)C(=O)[C@H](CC)[C@H]2O[C@]3(C=C[C@@H](O)[C@]4(CC[C@@](C)([C@H]5CC[C@](O)(CC)[C@H](C)O5)O4)O3)[C@H](C)C[C@@H]2C)O1`, the outcome in [1], in [2], in data set [3] and in [4] was inactive.

`CC[C@@H](C(=O)[C@@H](C)[C@@H](O)[C@H](C)[C@@H]1O[C@@H]([C@@H](CC)C(=O)NCC(F)(F)F)CC[C@@H]1C)[C@H]1O[C@]2(C=CC(=O)[C@]3(CC[C@@](C)([C@H]4CC[C@](O)(CC)[C@H](C)O4)O3)O2)[C@H](C)C[C@@H]1C`: the result in data set [1], in [2], in data set [3] and in data set [4] was inactive.
